Measurements published in patent US6172066A, “Dihydropyrimidines and uses thereof” (Synaptic Pharmaceutical Corporation, priority 1997, dated 2001).
Counter-ions that a name gives are not always drawn.

Tests used:
[1] = molecular target: T1, α1D Human Adrenergic Receptor (Homo sapiens, UniProt P25100); assay: Radioligand binding, [3H]prazosin displacement, cloned human α1D receptor (LM(tk-) cell membranes); details: [3H]prazosin 0.5 nM, 37° C., 20 min; for Ki: read-out: hα1D pKi (converted)
T1 construct: The entire coding region of α1D (1719 bp); expressed in transfected cells
T1 sequence (P25100 1-572): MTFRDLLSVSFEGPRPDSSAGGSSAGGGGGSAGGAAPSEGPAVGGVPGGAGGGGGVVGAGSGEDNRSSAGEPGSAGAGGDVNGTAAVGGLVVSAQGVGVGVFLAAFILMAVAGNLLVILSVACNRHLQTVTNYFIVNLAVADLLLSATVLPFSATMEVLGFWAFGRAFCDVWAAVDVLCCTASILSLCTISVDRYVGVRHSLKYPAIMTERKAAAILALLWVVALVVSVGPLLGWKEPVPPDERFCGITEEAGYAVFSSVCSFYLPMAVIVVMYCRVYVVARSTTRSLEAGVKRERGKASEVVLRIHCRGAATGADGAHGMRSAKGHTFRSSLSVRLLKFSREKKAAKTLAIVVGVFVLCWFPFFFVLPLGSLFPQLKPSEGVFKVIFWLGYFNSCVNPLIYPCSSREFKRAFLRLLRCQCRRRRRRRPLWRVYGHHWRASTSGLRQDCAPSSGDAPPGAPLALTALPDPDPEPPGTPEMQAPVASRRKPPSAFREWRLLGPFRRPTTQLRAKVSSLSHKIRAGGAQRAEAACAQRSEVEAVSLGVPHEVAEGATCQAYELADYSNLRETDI
Protocol: (§1) The activity of compounds at the different human receptors was determined in vitro using cultured cell lines that selectively express the receptor of interest. These cell lines were prepared by transfecting the cloned cDNA or cloned genomic DNA or constructs containing both genomic DNA and cDNA encoding the human α-adrenergic receptors as follows:
The entire coding region of α1D (1719 bp), including 150 base pairs of 5' untranslated sequence (5' UT) and 300 bp of 3' untranslated sequence (3' UT), was cloned into the BamHI and ClaI sites of the polylinker-modified eukaryotic expression vector pCEXV-3, called EXJ.HR. The construct involved the ligation of partial overlapping human lymphocyte genomic and hippocampal cDNA clones: 5' sequence were contained on a 1.2 kb SmaI-XhoI genomic fragment (the vector-derived BamHI site was used for subcloning instead of the internal insert-derived SmaI site) and 3' sequences were contained on an 1.3 kb XhoI-ClaI cDNA fragment (the ClaI site was from the vector polylinker). Stable cell lines were obtained by cotransfection with the plasmid α1A/EXJ (expression vector containing the α1A receptor gene (old nomenclature)) and the plasmid pGCcos3neo (plasmid containing the aminoglycoside transferase gene) into LM(tk-) cells using calcium phosphate technique. The cells were grown, in a controlled environment (37° C., 5% CO2), as monolayers in Dulbecco's modified Eagle's Medium (GIBCO, Grand Island, N.Y.) containing 25 mM glucose and supplemented with 10% bovine calf serum, 100 units/ml penicillin g, and 100 μg/ml streptomycin sulfate. Stable clones were then selected for resistance to the antibiotic G-418 (1 mg/ml), and membranes were harvested and assayed for their ability to bind [^3 H]prazosin as described below (see "Radioligand Binding assays").
The cell line expressing the human α1D receptor used herein was designated L-α1A (old nomenclature) and was deposited with the American Type Culture Collection, 12301 Parklawn Drive, Rockville, Md. 20852, U.S.A. under the provisions of the Budapest Treaty for the International Recognition of the Deposit of Microorganisms for the Purposes of Patent Procedure. The cell line expressing the human α1D receptor, was accorded ATCC Accession No. CRL 11138, and was deposited on Sep. 25, 1992.
(§2) Transfected cells from culture flasks were scraped into 5 ml of 5 mM Tris-HCl, 5 mM EDTA, pH 7.5, and lysed by sonication. The cell lysates were centrifuged at 1000 rpm for 5 min at 4° C., and the supernatant was centrifuged at 30,000×g for 20 min at 4° C. The pellet was suspended in 50 mM Tris-HCl, 1 mM MgCl2, and 0.1% ascorbic acid at pH 7.5. Binding of the α1 antagonist [^3 H]prazosin (0.5 nM, specific activity 76.2 Ci/mmol) to membrane preparations of LM(tk-) cells was done in a final volume of 0.25 ml and incubated at 37° C. for 20 min. Nonspecific binding was determined in the presence of 10 μM phentolamine. The reaction was stopped by filtration through GF/B filters using a cell harvester. Inhibition experiments, routinely consisting of 7 concentrations of the tested compounds, were analyzed using a non-linear regression curve-fitting computer program to obtain Ki values.

[2] = molecular target: T2, α1B Human Adrenergic Receptor (Homo sapiens, UniProt P35368); assay: Radioligand binding, [3H]prazosin displacement, cloned human α1B receptor (LM(tk-) cell membranes); details: [3H]prazosin 0.5 nM, 37° C., 20 min; for Ki: read-out: hα1B pKi (converted)
T2 construct: The entire coding region of a1B (1563 bp); expressed in transfected cells
T2 sequence (P35368 1-520): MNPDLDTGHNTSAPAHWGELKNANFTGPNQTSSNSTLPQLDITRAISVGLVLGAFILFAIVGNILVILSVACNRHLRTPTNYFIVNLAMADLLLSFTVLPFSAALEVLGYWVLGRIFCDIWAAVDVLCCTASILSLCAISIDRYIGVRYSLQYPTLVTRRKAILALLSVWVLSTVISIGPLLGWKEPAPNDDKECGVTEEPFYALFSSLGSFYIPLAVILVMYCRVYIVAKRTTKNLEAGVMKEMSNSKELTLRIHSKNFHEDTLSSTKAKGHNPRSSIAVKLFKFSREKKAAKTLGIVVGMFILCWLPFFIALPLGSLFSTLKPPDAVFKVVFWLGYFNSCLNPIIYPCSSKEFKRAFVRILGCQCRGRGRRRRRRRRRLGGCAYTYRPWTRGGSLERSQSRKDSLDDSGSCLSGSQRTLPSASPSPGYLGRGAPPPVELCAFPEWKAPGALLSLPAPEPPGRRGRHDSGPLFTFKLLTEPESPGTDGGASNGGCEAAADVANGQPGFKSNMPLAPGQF
Protocol: as §1
The entire coding region of a1B (1563 bp), including 200 base pairs and 5' untranslated sequence (5' UT) and 600 bp of 3' untranslated sequence (3' UT), was cloned into the EcoRI site of pCEXV-3 eukaryotic expression vector. The construct involved ligating the full-length containing EcoRI brainstem cDNA fragment from λ ZapII into the expression vector. Stable cell lines were selected as described above. The cell line used herein was designated L-α1B and was deposited with the American Type Culture Collection, 12301 Parklawn Drive, Rockville, Md. 20852, U.S.A. under the provisions of the Budapest Treaty for the International Recognition of the Deposit of Microorganisms for the Purposes of Patent Procedure. The cell line L-α1B was accorded ATCC Accession No. CRL 11139, on Sep. 25, 1992.
as §2

Molecule | Ki [1] [nM] | Ki [2] [nM] | hα1D pKi [1] | hα1B pKi [2]
COC(=O)C1=C(C)NC(=O)N(C(=O)NCCN[C@H]2CC[C@](C#N)(c3ccccc3F)CC2)C1c1ccc(F)c(F)c1 (single isomer, unassigned; (+)) [Example 13, (+)-cis-6-(3,4-Difluorophenyl)-1-{N-[2-(4-cyano-4-(2-fluorophenyl)-cyclohexylamino)ethyl]}carboxamido-5-methoxycarbonyl-4-methyl-2-oxo-1,2,3,6-tetrahydropyrimidine hydrochloride] | 51.3 | 13.5 | – | –
COCC1=C(C(=O)OC)C(c2ccc(F)c(F)c2)N(C(=O)NCCN[C@H]2CC[C@@](C#N)(c3ccccc3)CC2)C(=O)N1 (single isomer, unassigned; (+)) [Example 5, (+)-trans-6-(3,4-Difluorophenyl)-1-{N-[2-(4-cyano-4-phenyl-cyclohexylamino)ethyl]}carboxamido-5-methoxycarbonyl-4-methoxymethyl-2-oxo-1,2,3,6-tetrahydropyrimidine hydrochloride] | 123 | 26.9 | – | –
COCC1=C(C(=O)OC)C(c2ccc(F)c(F)c2)N(C(=O)NCCN[C@H]2CC[C@](C#N)(c3ccccc3)CC2)C(=O)N1 (single isomer, unassigned; (+)) [Example 4, (+)-cis-6-(3,4-Difluorophenyl)-1-{N-[2-(4-cyano-4-phenyl-cyclohexylamino)ethyl]}carboxamido-5-methoxycarbonyl-4-methoxymethyl-2-oxo-1,2,3,6-tetrahydropyrimidine hydrochloride] | 100 | 18.6 | – | –
CCC1=C(C(N)=O)C(c2ccc(F)cc2F)N(C(=O)NCCN[C@H]2CC[C@](C#N)(c3ccccc3)CC2)C(=O)N1 (single isomer, unassigned; (+)) [Example 3, (+)-cis-5-Carboxamido-6-(2,4-difluorophenyl)-1-{N-[2-(4-cyano-4-phenyl-cyclohexylamino)ethyl]}carboxamido-4-ethyl-2-oxo-1,2,3,6-tetrahydropyrimidine hydrochloride] | 240 | 100 | – | –
cis-6-(3,4,5-Trifluorophenyl)-1-{N-[2-(4-cyano-4-phenyl-cyclohexylamino)ethyl]}-carboxamido-5-acetyl-4-methoxymethyl-2-oxo-1,2,3,6-tetrahydropyrimidine hydrochloride [Example 2] | – | – | 7.05 | 7.76
COCC1=C(C(=O)OC)C(c2ccc(F)c(F)c2)N(C(=O)NCCN[C@H]2CC[C@](C#N)(c3ccccn3)CC2)C(=O)N1 (single isomer, unassigned; (+)) [Example 14, (+)-cis-6-(3,4-Difluorophenyl)-1-{N-[2-(4-cyano-4-(2-pyridyl)-cyclohexylamino)ethyl]}carboxamido-5-methoxycarbonyl-4-methoxymethyl-2-oxo-1,2,3,6-tetrahydropyrimidine hydrochloride] | 1100 | 282 | – | –
COCC1=C(C(=O)OC)C(c2ccc(F)c(F)c2)N(C(=O)NCCN[C@H]2CC[C@](C(=O)OC)(c3ccccc3)CC2)C(=O)N1 (single isomer, unassigned; (+)) [Example 11, (+)-cis-6-(3,4-Difluorophenyl)-1-{N-[2-(4-methoxycarbonyl-4-phenyl-cyclohexylamino)ethyl]}carboxamido-5-methoxycarbonyl-4-methoxymethyl-2-oxo-1,2,3,6-tetrahydropyrimidine hydrochloride] | 126 | 27.5 | – | –
COCC1=C(C(=O)OC)C(c2ccc(F)c(F)c2)N(C(=O)NCCN[C@H]2CC[C@H](c3ccccn3)CC2)C(=O)N1 (single isomer, unassigned; (+)) [Example 7, (+)-trans-6-(3,4-Difluorophenyl)-1-{N-[2-(4-(2-pyridyl)-cyclohexylamino)ethyl]}carboxamido-5-methoxycarbonyl-4-methoxymethyl-2-oxo-1,2,3,6-tetrahydropyrimidine hydrochloride] | 3890 | 1120 | – | –
